{"source": "paper PMC5218480", "about": "(PLoS ONE, 2017)", "tested_on": "MV-4-11 cells", "experiment": "Gene expression microarray analysis (Affymetrix PrimeView) and GSEA", "type": "cell-based, human", "parameters": "RFU PODN (11730768_x_at) / Fold change /veh PODN (11730768_x_at) / RFU LINC00158 (11744669_a_at) / Fold change /veh LINC00158 (11744669_a_at) / RFU DUSP10 (11751237_a_at) / Fold change /veh DUSP10 (11751237_a_at) / RFU ID3 (11757404_x_at) / Fold change /veh ID3 (11757404_x_at) / RFU PLEKHG5 (11737974_s_at) / Fold change /veh PLEKHG5 (11737974_s_at) / RFU LRRC4B (11730491_at) / Fold change /veh LRRC4B (11730491_at) / RFU GIMAP4 (11747438_a_at) / Fold change /veh GIMAP4 (11747438_a_at) / RFU KRT8 (11758183_x_at) / Fold change /veh KRT8 (11758183_x_at) / RFU CNN1 (11734310_a_at) / Fold change /veh CNN1 (11734310_a_at) / RFU VPS37D (11726825_at) / Fold change /veh VPS37D (11726825_at) / RFU C10orf10 (11716522_x_at) / Fold change /veh C10orf10 (11716522_x_at) / RFU KIR2DL2 /// KIR2DL4 /// KIR2DL5A /// KIR2DL5B /// KIR2DS1 /// KIR2DS2 /// KIR2DS3 /// KIR2DS4 /// KIR3DL3 /// KIR3DL3 /// KIR3DS1 (11738374_at) / Fold change /veh KIR2DL2 /// KIR2DL4 /// KIR2DL5A /// KIR2DL5B /// KIR2DS1 /// KIR2DS2 /// KIR2DS3 /// KIR2DS4 /// KIR3DL3 /// KIR3DL3 /// KIR3DS1 (11738374_at) / RFU C1QL1 (11718748_at) / Fold change /veh C1QL1 (11718748_at) / RFU TMPRSS4 (11747572_a_at) / Fold change /veh TMPRSS4 (11747572_a_at) / RFU HAMP (11756126_x_at) / Fold change /veh HAMP (11756126_x_at) / RFU RNFT2 (11725882_a_at) / Fold change /veh RNFT2 (11725882_a_at) / RFU NR4A2 (11747474_a_at) / Fold change /veh NR4A2 (11747474_a_at) / RFU ABCC12 (11746883_a_at) / Fold change /veh ABCC12 (11746883_a_at) / RFU TMEM136 (11760407_x_at) / Fold change /veh TMEM136 (11760407_x_at) / RFU CLDN22 /// WWC2 (11732394_at) / Fold change /veh CLDN22 /// WWC2 (11732394_at) / RFU HLA-DPB1 (11760878_x_at) / Fold change /veh HLA-DPB1 (11760878_x_at) / RFU SPINT1 (11716480_a_at) / Fold change /veh SPINT1 (11716480_a_at) / RFU GAP43 (11754022_s_at) / Fold change /veh GAP43 (11754022_s_at) / RFU A4GNT (11735810_at) / Fold change /veh A4GNT (11735810_at) / RFU PRB3 (11715151_x_at) / Fold change /veh PRB3 (11715151_x_at) / RFU TUBB4B (11761932_at) / Fold change /veh TUBB4B (11761932_at) / RFU CAPN14 (11732068_a_at) / Fold change /veh CAPN14 (11732068_a_at) / RFU TMCC2 (11721928_a_at) / Fold change /veh TMCC2 (11721928_a_at) / RFU IRGQ (11745062_a_at) / Fold change /veh IRGQ (11745062_a_at) / RFU FAM174B (11720279_a_at) / Fold change /veh FAM174B (11720279_a_at) / RFU TMPRSS4 (11748680_a_at) / Fold change /veh TMPRSS4 (11748680_a_at) / RFU FAM212B (11763350_a_at) / Fold change /veh FAM212B (11763350_a_at) / RFU PLEKHG5 (11743358_a_at) / Fold change /veh PLEKHG5 (11743358_a_at) / RFU ZSCAN30 (11745921_a_at) / Fold change /veh ZSCAN30 (11745921_a_at) / RFU CMKLR1 (11741424_a_at) / Fold change /veh CMKLR1 (11741424_a_at) / RFU LOC101060620 /// MAPK8IP1 (11723275_at) / Fold change /veh LOC101060620 /// MAPK8IP1 (11723275_at) / RFU SPTSSB (11747773_x_at) / Fold change /veh SPTSSB (11747773_x_at) / RFU PRSS12 (11739890_at) / Fold change /veh PRSS12 (11739890_at) / RFU BIN1 (11741810_x_at) / Fold change /veh BIN1 (11741810_x_at) / RFU WNT11 (11732464_a_at) / Fold change /veh WNT11 (11732464_a_at) / RFU C10orf10 (11716521_a_at) / Fold change /veh C10orf10 (11716521_a_at) / RFU C5orf56 (11738089_at) / Fold change /veh C5orf56 (11738089_at) / RFU CYB561 (11721691_x_at) / Fold change /veh CYB561 (11721691_x_at) / RFU ANKRD19P (11752326_a_at) / Fold change /veh ANKRD19P (11752326_a_at) / RFU OR2T12 /// OR2T33 /// OR2T8 (11738714_s_at) / Fold change /veh OR2T12 /// OR2T33 /// OR2T8 (11738714_s_at) / RFU VCAN (11748164_a_at) / Fold change /veh VCAN (11748164_a_at) / RFU JSRP1 (11732532_at) / Fold change /veh JSRP1 (11732532_at) / RFU KRTAP10-11 (11738290_x_at) / Fold change /veh KRTAP10-11 (11738290_x_at) / RFU MYO3A (11730013_a_at) / Fold change /veh MYO3A (11730013_a_at) / RFU EBF3 (11725865_a_at) / Fold change /veh EBF3 (11725865_a_at) / RFU CAMK2N1 (11719241_x_at) / Fold change /veh CAMK2N1 (11719241_x_at) / RFU C5orf56 (11738088_a_at) / Fold change /veh C5orf56 (11738088_a_at) / RFU OLFML3 (11715873_a_at) / Fold change /veh OLFML3 (11715873_a_at) / RFU LOC100653217 /// NTM (11731650_a_at) / Fold change /veh LOC100653217 /// NTM (11731650_a_at) / RFU MAPK11 (11762145_a_at) / Fold change /veh MAPK11 (11762145_a_at) / RFU FIZ1 (11724087_x_at) / Fold change /veh FIZ1 (11724087_x_at) / RFU OASL (11726364_x_at) / Fold change /veh OASL (11726364_x_at) / RFU SOX15 (11748057_x_at) / Fold change /veh SOX15 (11748057_x_at) / RFU CD79A (11719716_a_at) / Fold change /veh CD79A (11719716_a_at) / RFU HIST1H1D (11736915_at) / Fold change /veh HIST1H1D (11736915_at) / RFU CASKIN2 (11723855_a_at) / Fold change /veh CASKIN2 (11723855_a_at) / RFU LOC730098 (11760151_x_at) / Fold change /veh LOC730098 (11760151_x_at) / RFU OR4N2 (11742367_at) / Fold change /veh OR4N2 (11742367_at) / RFU PRRT2 (11749266_a_at) / Fold change /veh PRRT2 (11749266_a_at) / RFU SNX32 (11753110_a_at) / Fold change /veh SNX32 (11753110_a_at) / RFU CDHR5 (11726645_a_at) / Fold change /veh CDHR5 (11726645_a_at) / RFU RCAN1 (11760418_a_at) / Fold change /veh RCAN1 (11760418_a_at) / RFU FAM167A (11723789_a_at) / Fold change /veh FAM167A (11723789_a_at) / RFU FAM26E (11764081_at) / Fold change /veh FAM26E (11764081_at) / RFU ISYNA1 (11749810_s_at) / Fold change /veh ISYNA1 (11749810_s_at) / RFU ACY1 (11761880_at) / Fold change /veh ACY1 (11761880_at) / RFU 11764098_at / Fold change /veh 11764098_at / RFU SAMD14 (11745864_x_at) / Fold change /veh SAMD14 (11745864_x_at) / RFU NPB (11741838_a_at) / Fold change /veh NPB (11741838_a_at) / RFU TMPRSS6 (11731388_a_at) / Fold change /veh TMPRSS6 (11731388_a_at) / RFU KRTAP10-2 (11738614_at) / Fold change /veh KRTAP10-2 (11738614_at) / RFU ARHGAP8 /// PRR5-ARHGAP8 (11727945_x_at) / Fold change /veh ARHGAP8 /// PRR5-ARHGAP8 (11727945_x_at) / RFU KRTAP5-7 /// NADSYN1 (11734609_at) / Fold change /veh KRTAP5-7 /// NADSYN1 (11734609_at) / RFU RASL12 (11751679_a_at) / Fold change /veh RASL12 (11751679_a_at) / RFU CDKN2B (11736163_a_at) / Fold change /veh CDKN2B (11736163_a_at) / RFU PRF1 (11729649_at) / Fold change /veh PRF1 (11729649_at) / RFU, ZNF638 /// ZNF638-IT1 / Fold change vs veh, ZNF638 /// ZNF638-IT1 / RFU, PANK3 / Fold change vs veh, PANK3 / RFU, SH3YL1 / Fold change vs veh, SH3YL1 / RFU, ZEB2 / Fold change vs veh, ZEB2 / RFU, NRIP1 / Fold change vs veh, NRIP1 / RFU, PTTG1IP / Fold change vs veh, PTTG1IP / RFU, CAPN2 / Fold change vs veh, CAPN2 / RFU, MED14 / Fold change vs veh, MED14 / RFU, SNORA58 / Fold change vs veh, SNORA58 / RFU, C1orf63 / Fold change vs veh, C1orf63 / RFU, LRRFIP1 / Fold change vs veh, LRRFIP1 / RFU, NDUFAF7 / Fold change vs veh, NDUFAF7 / RFU, SLC12A2 / Fold change vs veh, SLC12A2 / RFU, IBTK / Fold change vs veh, IBTK / RFU, ESF1 / Fold change vs veh, ESF1 / Fold change vs veh, TMEM50B / RFU, TAOK1 / Fold change vs veh, TAOK1 / RFU, ACBD3 / Fold change vs veh, ACBD3 / RFU, TMA16 / Fold change vs veh, TMA16 / RFU, RWDD3 / Fold change vs veh, RWDD3 / RFU, BCAT1 / Fold change vs veh, BCAT1 / RFU, EDEM3 / Fold change vs veh, EDEM3 / RFU, TMEM33 / Fold change vs veh, TMEM33 / RFU, WDR75 / Fold change vs veh, WDR75 / RFU, AHCTF1 / Fold change vs veh, AHCTF1 / RFU, TFRC / Fold change vs veh, TFRC / RFU, ZDHHC17 / Fold change vs veh, ZDHHC17 / RFU, NOM1 / Fold change vs veh, NOM1 / RFU, ARL8B / Fold change vs veh, ARL8B / RFU, ZBTB11 / Fold change vs veh, ZBTB11 / RFU, TAMM41 / Fold change vs veh, TAMM41 / RFU, KIAA1704 /// LOC100996395 / Fold change vs veh, KIAA1704 /// LOC100996395 / RFU, ING1 / Fold change vs veh, ING1 / RFU, TRMT61B / Fold change vs veh, TRMT61B / RFU, FUBP3 / Fold change vs veh, FUBP3 / RFU, TP53 / Fold change vs veh, TP53 / RFU, TNKS2 / Fold change vs veh, TNKS2 / RFU, ZFP14 / Fold change vs veh, ZFP14 / RFU, ACTR2 / Fold change vs veh, ACTR2 / RFU, PPP3R1 / Fold change vs veh, PPP3R1 / RFU, PIK3R1 / Fold change vs veh, PIK3R1 / RFU, HNRNPA1 / Fold change vs veh, HNRNPA1 / RFU, RNF170 / Fold change vs veh, RNF170 / RFU, ZNF28 / Fold change vs veh, ZNF28 / RFU, RNGTT / Fold change vs veh, RNGTT / RFU, OGT / Fold change vs veh, OGT / RFU, BRD1 / Fold change vs veh, BRD1 / RFU, MARS / Fold change vs veh, MARS / RFU, ZNF655 / Fold change vs veh, ZNF655 / RFU, FAHD1 / Fold change vs veh, FAHD1 / RFU, BDP1 / Fold change vs veh, BDP1 / RFU, LRRCC1 / Fold change vs veh, LRRCC1 / RFU, ARID1A / Fold change vs veh, ARID1A / RFU, ZNF146 / Fold change vs veh, ZNF146 / RFU, ZNF330 / Fold change vs veh, ZNF330 / RFU, GPN3 / Fold change vs veh, GPN3 / RFU, C9orf123 / Fold change vs veh, C9orf123 / RFU, N4BP2L2 / Fold change vs veh, N4BP2L2 / RFU, ARFIP1 / Fold change vs veh, ARFIP1 / RFU, FAM179B / Fold change vs veh, FAM179B / RFU, BCL10 / Fold change vs veh, BCL10 / RFU, UHRF1BP1L / Fold change vs veh, UHRF1BP1L / RFU, BET1 / Fold change vs veh, BET1 / RFU, CNOT2 / Fold change vs veh, CNOT2 / RFU, ZNF268 / Fold change vs veh, ZNF268 / Fold change vs veh, ZNF507 / RFU, DGCR2 / Fold change vs veh, DGCR2 / RFU, WDSUB1 / Fold change vs veh, WDSUB1 / Fold change vs veh, HSP90B1 /// MIR3652 / RFU, ADSS / Fold change vs veh, ADSS / RFU, GK / Fold change vs veh, GK / RFU, ZNF148 / Fold change vs veh, ZNF148 / RFU, TAF9 / Fold change vs veh, TAF9 / RFU, SLC1A5 / Fold change vs veh, SLC1A5 / RFU, SLMO2 / Fold change vs veh, SLMO2 / RFU, ABCC4 / Fold change vs veh, ABCC4 / RFU, LOC101060439 /// RAP1B / Fold change vs veh, LOC101060439 /// RAP1B / RFU, RFX7 / Fold change vs veh, RFX7 / RFU, GTPBP10 / Fold change vs veh, GTPBP10 / RFU, CNEP1R1 / Fold change vs veh, CNEP1R1 / RFU, BIVM-ERCC5 /// ERCC5 / Fold change vs veh, BIVM-ERCC5 /// ERCC5 / RFU, ILF3 / Fold change vs veh, ILF3 / RFU 11762660_at / Fold change /veh 11762660_at / RFU VCAN (11757783_s_at) / Fold change /veh VCAN (11757783_s_at) / RFU DDX43 (11728927_at) / Fold change /veh DDX43 (11728927_at) / RFU KRT8 (11758188_x_at) / Fold change /veh KRT8 (11758188_x_at) / RFU NKD1 (11759106_at) / Fold change /veh NKD1 (11759106_at) / RFU SRD5A1 (11742802_a_at) / Fold change /veh SRD5A1 (11742802_a_at) / RFU TPSAB1 /// TPSB2 (11721975_s_at) / Fold change /veh TPSAB1 /// TPSB2 (11721975_s_at) / RFU GSTM3 (11746129_a_at) / Fold change /veh GSTM3 (11746129_a_at) / RFU IL23R (11737362_x_at) / Fold change /veh IL23R (11737362_x_at) / RFU TMEM51 (11727254_a_at) / Fold change /veh TMEM51 (11727254_a_at) / RFU PIWIL2 (11732686_x_at) / Fold change /veh PIWIL2 (11732686_x_at) / RFU ORM1 (11744905_x_at) / Fold change /veh ORM1 (11744905_x_at) / RFU CCDC152 (11743942_at) / Fold change /veh CCDC152 (11743942_at) / RFU ECM1 (11717891_a_at) / Fold change /veh ECM1 (11717891_a_at) / RFU IL23R (11748794_a_at) / Fold change /veh IL23R (11748794_a_at) / RFU TNFAIP8L3 (11732012_x_at) / Fold change /veh TNFAIP8L3 (11732012_x_at) / RFU MBOAT4 (11741988_at) / Fold change /veh MBOAT4 (11741988_at) / RFU 11764193_at / Fold change /veh 11764193_at / RFU TMEM53 (11763286_at) / Fold change /veh TMEM53 (11763286_at) / RFU MAGEB2 (11727129_at) / Fold change /veh MAGEB2 (11727129_at) / RFU TMEM200A (11744735_a_at) / Fold change /veh TMEM200A (11744735_a_at) / RFU CCDC152 (11751479_a_at) / Fold change /veh CCDC152 (11751479_a_at) / RFU FAM211A (11726209_a_at) / Fold change /veh FAM211A (11726209_a_at) / RFU RGS16 (11746705_a_at) / Fold change /veh RGS16 (11746705_a_at) / RFU VCAN (11755009_s_at) / Fold change /veh VCAN (11755009_s_at) / RFU RHOB (11743442_s_at) / Fold change /veh RHOB (11743442_s_at) / RFU RGS16 (11720943_a_at) / Fold change /veh RGS16 (11720943_a_at) / RFU RGS16 (11720944_at) / Fold change /veh RGS16 (11720944_at) / RFU, VPS4B / Fold change vs veh, VPS4B / RFU, CREB1 / Fold change vs veh, CREB1 / RFU, DNAJC13 / Fold change vs veh, DNAJC13 / RFU, GNAQ / Fold change vs veh, GNAQ / RFU, CDK5R1 / Fold change vs veh, CDK5R1 / RFU, ZRANB3 / Fold change vs veh, ZRANB3 / RFU, CUL4A / Fold change vs veh, CUL4A / RFU, CCNY / Fold change vs veh, CCNY / RFU, UFL1 / Fold change vs veh, UFL1 / RFU, COG3 / Fold change vs veh, COG3 / RFU, DIAPH2 / Fold change vs veh, DIAPH2 / RFU, SKA2 / Fold change vs veh, SKA2 / RFU, AFF3 / Fold change vs veh, AFF3 / RFU, LMF1 / Fold change vs veh, LMF1 / RFU, IPO11 / Fold change vs veh, IPO11 / RFU, DFFB / Fold change vs veh, DFFB / RFU, FOXP1 / Fold change vs veh, FOXP1 / RFU, CARD8 / Fold change vs veh, CARD8 / RFU, STRN3 / Fold change vs veh, STRN3 / RFU, ADK / Fold change vs veh, ADK / RFU, RASSF2 / Fold change vs veh, RASSF2 / RFU, WIPF1 / Fold change vs veh, WIPF1 / RFU, LARP1B / Fold change vs veh, LARP1B / RFU, RASA1 / Fold change vs veh, RASA1 / RFU, RB1 / Fold change vs veh, RB1 / RFU, PPFIA1 / Fold change vs veh, PPFIA1 / RFU, MAT2A / Fold change vs veh, MAT2A / RFU, CCT5 / Fold change vs veh, CCT5 / RFU, WDR92 / Fold change vs veh, WDR92 / RFU, CUX1 / Fold change vs veh, CUX1 / RFU, TTC7A / Fold change vs veh, TTC7A / RFU, TMEM135 / Fold change vs veh, TMEM135 / RFU, DEPTOR / Fold change vs veh, DEPTOR / RFU, CPM / Fold change vs veh, CPM / RFU, DNAJB6 / Fold change vs veh, DNAJB6 / RFU, CACNA2D3 / Fold change vs veh, CACNA2D3 / RFU, DTX4 / Fold change vs veh, DTX4 / RFU, TFCP2 / Fold change vs veh, TFCP2 / RFU, GMCL1 /// GMCL1P1 / Fold change vs veh, GMCL1 /// GMCL1P1 / RFU, AEBP2 / Fold change vs veh, AEBP2 / RFU, SNHG1 /// SNORD22 /// SNORD25 /// SNORD26 /// SNORD27 /// SNORD28 /// SNORD29 /// SNORD31 / Fold change vs veh, SNHG1 /// SNORD22 /// SNORD25 /// SNORD26 /// SNORD27 /// SNORD28 /// SNORD29 /// SNORD31 / Fold change (Aza/veh), C12orf56 (ProbeSet 11735607_a_at) / Fold change (ACY-1035/veh), C12orf56 (ProbeSet 11735607_a_at) / Fold change (Aza/veh), FGFR1OP (ProbeSet 11751329_s_at) / Fold change (ACY-1035/veh), FGFR1OP (ProbeSet 11751329_s_at) / Fold change (Aza/veh), VPS36 (ProbeSet 11739960_a_at) / Fold change (ACY-1035/veh), VPS36 (ProbeSet 11739960_a_at) / RFU SYPL1 (11715823_x_at) / Fold change /veh SYPL1 (11715823_x_at) / RFU IGFBP7 (11715501_s_at) / Fold change /veh IGFBP7 (11715501_s_at) / RFU REEP3 (11722064_at) / Fold change /veh REEP3 (11722064_at) / RFU IGLL1 (11728026_x_at) / Fold change /veh IGLL1 (11728026_x_at): dose or concentration left out as unconfirmed", "conditions": "MV-4-11 cells, 48 hours", "data": [{"smiles": "Nc1ncn([C@@H]2O[C@H](CO)[C@@H](O)[C@H]2O)c(=O)n1", "note": "[azacitidine]", "values": [{"measurement": "Fold change /veh 11764193_at", "value": 1.69}]}]}
